Source: ChEMBL document CHEMBL1201862, “PubChem BioAssay data set” (2004)
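48-hour exposure; five concentrations; linearly interpolated endpoints. The concentration for 50% growth inhibition is given as GI50.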 Activity calls are given as the source filed them. Rule as the data show it: active = GI50 up to about 1.1 µM and inactive = higher.

Tests used:
Test in all cases: inhibition of tumour cell growth, NCI panel, 48 h
NCI/ADR-RES = system: NCI/ADR-RES
OVCAR-3 = system: OVCAR-3
HCT-15 = system: HCT-15
NCI-H522 = system: NCI-H522
HL-60 = system: HL-60
MCF7 = system: MCF7
SF-268 = system: SF-268
SNB-75 = system: SNB-75
NCI-H226 = system: NCI-H226
786-0 = system: 786-0
LOX IMVI = system: LOX IMVI
SK-MEL-2 = system: SK-MEL-2
UACC-257 = system: UACC-257
HOP-92 = system: HOP-92
HOP-62 = system: HOP-62
HT-29 = system: HT-29
MDA-N = system: MDA-N
RPMI-8226 = system: RPMI-8226
RXF 393 = system: RXF 393
OVCAR-8 = system: OVCAR-8

Row | Compound | GI50 (NCI/ADR-RES) | GI50 (OVCAR-3) | GI50 (HCT-15) | GI50 (NCI-H522) | GI50 (HL-60) | GI50 (MCF7) | GI50 (SF-268) | GI50 (SNB-75) | GI50 (NCI-H226) | GI50 (786-0) | GI50 (LOX IMVI) | GI50 (SK-MEL-2) | GI50 (UACC-257) | GI50 (HOP-92) | GI50 (HOP-62) | GI50 (HT-29) | GI50 (MDA-N) | GI50 (RPMI-8226) | GI50 (RXF 393) | GI50 (OVCAR-8)
1 | O=C1/C(=C/c2ccc(O)c(O)c2)CCC/C1=C\c1ccc(O)c(O)c1 | 4.13 µM (inactive) | 3.06 µM (inactive) | 4.13 µM | 0.729 µM (active) | 3.24 µM (inactive) | 5.16 µM (inactive) | 3.02 µM (inactive) | 3.4 µM (inactive) | 5.6 µM (inactive) | 3.31 µM (inactive) | 2.11 µM (inactive) | 3.42 µM (inactive) | 4.51 µM (inactive) | 2.98 µM (inactive) | 4.13 µM (inactive) | 8.09 µM (inactive) | 3.13 µM (inactive) | 2.48 µM (inactive) | 2.62 µM (inactive) | 2.07 µM (inactive)
2 | CCOC(=O)c1ccc(OCc2nc3cc(C(F)(F)F)ccc3nc2-c2ccccc2)cc1 | > 100 µM (inactive) | > 100 µM (inactive) | > 100 µM | > 100 µM (inactive) | > 100 µM (inactive) | > 100 µM (inactive) | > 100 µM (inactive) | > 100 µM (inactive) | > 100 µM (inactive) | > 100 µM (inactive) | > 100 µM (inactive) | > 100 µM (inactive) | > 100 µM (inactive) | > 100 µM (inactive) | > 100 µM (inactive) | > 100 µM (inactive) | > 100 µM (inactive) | > 100 µM (inactive) | > 100 µM (inactive) | > 100 µM (inactive)
3 | C[C@@H](Cl)[C@H]1CCCN(Cc2ccc(Br)cc2)C1 | > 12.5 µM (inactive) | > 12.5 µM (inactive) | > 12.5 µM | > 12.5 µM (inactive) | > 12.5 µM (inactive) | > 12.5 µM (inactive) | > 12.5 µM (inactive) | > 12.5 µM (inactive) | > 12.5 µM (inactive) | > 12.5 µM (inactive) | > 12.5 µM (inactive) | > 12.5 µM (inactive) | > 12.5 µM (inactive) | > 12.5 µM (inactive) | > 12.5 µM (inactive) | > 12.5 µM (inactive) | > 12.5 µM (inactive) | > 12.5 µM (inactive) | > 12.5 µM (inactive) | > 12.5 µM (inactive)
4 | CO[C@H]1C[C@H](O[C@H]2CC[C@]3(C=O)[C@H]4CC[C@]5(C)[C@@H](C6=CC(=O)OC6)CC[C@]5(O)[C@@H]4CC[C@]3(O)C2)O[C@H](C)[C@H]1O[C@@H]1O[C@H](CO[C@@H]2O[C@H](CO)[C@@H](O)[C@H](O)[C@H]2O)[C@@H](O)[C@H](O)[C@H]1O | 0.034 µM (active) | 0.0241 µM (active) | 0.0405 µM | 0.0139 µM (active) | 0.0361 µM (active) | 0.0546 µM (active) | 0.0356 µM (active) | 0.11 µM (active) | 0.171 µM (active) | 0.0272 µM (active) | 0.0373 µM (active) | 0.235 µM (active) | 0.239 µM (active) | 0.0845 µM (active) | 0.0158 µM (active) | 0.0442 µM (active) | 0.128 µM (active) | 0.139 µM (active) | 0.0251 µM (active) | 0.0434 µM (active)
5 | C[C@H]1CC[C@@H]2[C@@H](C)[C@H]3[C@H](C[C@H]4[C@@H]5CC=C6C[C@@H](O)CC[C@]6(C)[C@H]5C[C@H](O)[C@]34C)N2C1 | > 100 µM (inactive) | > 100 µM (inactive) | > 100 µM | > 100 µM (inactive) | – | > 100 µM (inactive) | > 100 µM (inactive) | > 100 µM (inactive) | > 100 µM (inactive) | > 100 µM (inactive) | > 100 µM (inactive) | > 100 µM (inactive) | > 100 µM (inactive) | > 100 µM (inactive) | > 100 µM (inactive) | > 100 µM (inactive) | > 100 µM (inactive) | > 100 µM (inactive) | > 100 µM (inactive) | > 100 µM (inactive)
6 | CC(C)[C@H](NC(=O)[C@@H](O)[C@H](N)Cc1ccccc1)C(=O)N[C@@H](Cc1ccccc1)C(=O)O | > 100 µM (inactive) | > 100 µM (inactive) | > 100 µM | > 100 µM (inactive) | > 100 µM (inactive) | > 100 µM (inactive) | > 100 µM (inactive) | > 100 µM (inactive) | > 100 µM (inactive) | > 100 µM (inactive) | > 100 µM (inactive) | > 100 µM (inactive) | > 100 µM (inactive) | > 100 µM (inactive) | > 100 µM (inactive) | – | > 100 µM (inactive) | > 100 µM (inactive) | – | > 100 µM (inactive)
7 | O=[N+]([O-])c1ccc(SN=S=NSc2cccc(SN=S=NSc3ccc([N+](=O)[O-])cc3)c2)cc1 | 28 µM (inactive) | 62.1 µM (inactive) | 17.7 µM | 15.8 µM (inactive) | 28.2 µM (inactive) | 24.6 µM (inactive) | 33 µM (inactive) | – | – | 13.8 µM (inactive) | 17.2 µM (inactive) | 17.1 µM (inactive) | 45.3 µM (inactive) | > 100 µM (inactive) | 48.8 µM (inactive) | 33.2 µM (inactive) | 30.8 µM (inactive) | 27.7 µM (inactive) | – | 22.4 µM (inactive)
8 | CC1(C)OCC(/C=C\C(O)CC2(C)OCCO2)CO1 (stereo unspecified) | > 100 µM (inactive) | > 100 µM (inactive) | > 100 µM | > 100 µM (inactive) | > 100 µM (inactive) | > 100 µM (inactive) | > 100 µM (inactive) | > 100 µM (inactive) | > 100 µM (inactive) | > 100 µM (inactive) | > 100 µM (inactive) | > 100 µM (inactive) | > 100 µM (inactive) | > 100 µM (inactive) | > 100 µM (inactive) | > 100 µM (inactive) | > 100 µM (inactive) | > 100 µM (inactive) | – | > 100 µM (inactive)
9 | CCOC(=O)c1ccc(/N=C2/C(=S)N(c3ccc(C(=O)OCC)cc3)C(=N)N2/N=C/c2ccccc2)cc1 | 38.3 µM (inactive) | 13.1 µM (inactive) | 27.3 µM | 2.34 µM (inactive) | – | 6.68 µM (inactive) | 16.2 µM (inactive) | – | 15 µM (inactive) | 11.3 µM (inactive) | – | 26.1 µM (inactive) | > 10 µM (inactive) | 15.9 µM (inactive) | > 10 µM (inactive) | 18.4 µM (inactive) | 12.1 µM (inactive) | 4.13 µM (inactive) | 5.13 µM (inactive) | 28.2 µM (inactive)
10 | Nc1c2ccccc2nc2c1ccc1ncccc12 | 19.9 µM (inactive) | 24 µM (inactive) | 14.2 µM | 12 µM (inactive) | 4.32 µM (inactive) | 6.46 µM (inactive) | – | 22.3 µM (inactive) | 13.9 µM (inactive) | 9.79 µM (inactive) | 6.03 µM (inactive) | 18.6 µM (inactive) | 28.8 µM (inactive) | 22.8 µM (inactive) | – | 11.5 µM (inactive) | 28.1 µM (inactive) | – | 24.8 µM (inactive) | 21.2 µM (inactive)
11 | O=C(O)c1cc(Cl)cc2c1NC1(N2)C(=O)Nc2ccccc21 (stereo unspecified) | > 100 µM (inactive) | > 100 µM (inactive) | 45.4 µM | > 100 µM (inactive) | – | > 100 µM (inactive) | 62.1 µM (inactive) | 97.1 µM (inactive) | > 100 µM (inactive) | > 100 µM (inactive) | 49 µM (inactive) | > 100 µM (inactive) | > 100 µM (inactive) | > 100 µM (inactive) | > 100 µM (inactive) | 78.5 µM (inactive) | > 100 µM (inactive) | > 100 µM (inactive) | 52.6 µM (inactive) | 39.6 µM (inactive)
12 | COC(OC)C1OC(CO)C(n2ccc(N)nc2=O)C1O (stereo unspecified) | > 100 µM (inactive) | > 100 µM (inactive) | > 100 µM | > 100 µM (inactive) | – | > 100 µM (inactive) | > 100 µM (inactive) | > 100 µM (inactive) | > 100 µM (inactive) | > 100 µM (inactive) | > 100 µM (inactive) | > 100 µM (inactive) | > 100 µM (inactive) | > 100 µM (inactive) | > 100 µM (inactive) | > 100 µM (inactive) | > 100 µM (inactive) | > 100 µM (inactive) | > 100 µM (inactive) | > 100 µM (inactive)
13 | Cc1cc2nc3[nH]nc(N)c3nc2cc1C | > 100 µM (inactive) | – | > 100 µM | > 100 µM (inactive) | > 100 µM (inactive) | > 100 µM (inactive) | > 100 µM (inactive) | 26.2 µM (inactive) | 17.7 µM (inactive) | > 100 µM (inactive) | > 100 µM (inactive) | > 100 µM (inactive) | > 100 µM (inactive) | > 100 µM (inactive) | 70 µM (inactive) | > 100 µM (inactive) | > 100 µM (inactive) | > 100 µM (inactive) | 32.3 µM (inactive) | 88.7 µM (inactive)
14 | CC(C)=CC(=O)c1[nH]c2ccccc2c1CC(=O)NCCc1cncn1C | > 100 µM (inactive) | 58.1 µM (inactive) | > 100 µM | 21.8 µM (inactive) | – | 42.4 µM (inactive) | 61.8 µM (inactive) | 52.4 µM (inactive) | 88.3 µM (inactive) | 98.9 µM (inactive) | 55.5 µM (inactive) | > 100 µM (inactive) | 52.6 µM (inactive) | 36.4 µM (inactive) | – | 35.7 µM (inactive) | 50.7 µM (inactive) | – | 29.6 µM (inactive) | 62.4 µM (inactive)
